How the values were obtained:
Assay in all cases: DiFMUP hydrolysis, fluorogenic phosphatase assay
Format in all cases: biochemical
[1] = biological target: rat PTPRZ-D1D2 (PTPRZ-ICR) (Rattus norvegicus, UniProt Q62656, D2178K/D2179K); conditions: substrate DiFMUP; competitive; also bound 1:1 in native MS
[2] = biological target: PTPRZ-ΔD2 (ΔD2 mutant of PTPRZ-ICR) (Rattus norvegicus, UniProt Q62656); conditions: substrate DiFMUP; competitive; also bound 1:1 in native MS
[3] = biological target: rat PTPRZ-D1D2 (PTPRZ-ICR) (Rattus norvegicus, UniProt Q62656); conditions: substrate DiFMUP; competitive; also bound 1:1 to monomer in native MS
Sequence of rat PTPRZ-D1D2 (PTPRZ-ICR) (Rattus norvegicus, UniProt Q62656) (Q62656 1699-2316): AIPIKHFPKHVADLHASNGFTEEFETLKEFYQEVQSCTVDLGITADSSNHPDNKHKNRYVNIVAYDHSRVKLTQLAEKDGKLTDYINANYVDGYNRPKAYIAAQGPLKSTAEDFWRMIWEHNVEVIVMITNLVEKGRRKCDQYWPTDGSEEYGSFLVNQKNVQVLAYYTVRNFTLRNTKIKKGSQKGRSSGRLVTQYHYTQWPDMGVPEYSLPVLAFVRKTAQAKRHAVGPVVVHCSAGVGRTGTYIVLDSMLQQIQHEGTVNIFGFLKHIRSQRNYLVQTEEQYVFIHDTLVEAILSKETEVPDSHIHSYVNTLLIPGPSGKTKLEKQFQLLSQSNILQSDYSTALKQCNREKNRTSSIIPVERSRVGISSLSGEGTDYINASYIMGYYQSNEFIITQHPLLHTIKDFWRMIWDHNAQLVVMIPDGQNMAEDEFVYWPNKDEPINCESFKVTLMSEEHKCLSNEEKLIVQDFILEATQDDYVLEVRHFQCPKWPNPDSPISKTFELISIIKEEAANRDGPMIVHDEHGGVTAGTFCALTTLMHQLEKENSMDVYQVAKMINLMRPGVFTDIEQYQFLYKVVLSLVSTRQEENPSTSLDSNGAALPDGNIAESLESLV

Sequence of rat PTPRZ-D1D2 (PTPRZ-ICR) (Rattus norvegicus, UniProt Q62656, D2178K/D2179K) (Q62656 1699-2316 D2178K/D2179K): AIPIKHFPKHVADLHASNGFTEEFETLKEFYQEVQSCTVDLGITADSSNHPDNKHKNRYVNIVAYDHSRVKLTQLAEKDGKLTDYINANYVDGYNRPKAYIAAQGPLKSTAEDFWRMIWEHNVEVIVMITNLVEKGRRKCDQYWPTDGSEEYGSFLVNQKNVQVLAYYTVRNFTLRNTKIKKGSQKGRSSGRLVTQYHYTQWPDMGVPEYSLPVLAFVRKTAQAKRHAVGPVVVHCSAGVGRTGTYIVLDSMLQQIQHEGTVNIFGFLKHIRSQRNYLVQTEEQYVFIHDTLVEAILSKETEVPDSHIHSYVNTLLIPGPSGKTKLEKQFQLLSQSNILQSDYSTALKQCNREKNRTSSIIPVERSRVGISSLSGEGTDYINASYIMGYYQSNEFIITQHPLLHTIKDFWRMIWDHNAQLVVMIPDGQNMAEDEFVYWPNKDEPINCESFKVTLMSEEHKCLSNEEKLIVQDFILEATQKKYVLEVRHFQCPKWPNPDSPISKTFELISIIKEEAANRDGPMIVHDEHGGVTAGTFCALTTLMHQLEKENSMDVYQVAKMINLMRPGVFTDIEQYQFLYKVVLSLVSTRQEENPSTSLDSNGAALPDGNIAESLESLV

- IC50 [1]: 370 nM
- IC50 [2]: 400 nM
- IC50 [3]: 380 nM
Substance: SCB4380

— article doi:10.1101/636423v1 (biorxiv, 2019)
